Data taken from PMC11070930 (The Biochemical journal, 2024).
Where two headings read alike, the source gives them in different places. Values belong to the molecule of their own block, whether it stands above or below them.

Legend:
PARP1 [1] = target: T1, PARP1 (Homo sapiens, UniProt P09874); assay: PARP1 enzyme inhibition assay; format: biochemical; details: for decrease in PARP1 inhibition potency compared to veliparib: relative to veliparib
PARP1 [2] = target: T1, PARP1; details: allosteric-based classification reported earlier; cited from earlier work
PARP1 WT [3] = target: T2, PARP1 WT (UniProt P09874 1-1014); assay: fluorescence polarization
PARP1 WT [4] = target: T2, PARP1 WT; assay: fluorescence polarization; remark: listed apart in the source
PARP1 WT [5] = target: T2, PARP1 WT; assay: fluorescence polarization; remark: listed apart in the source
PARP1 WT [6] = target: T2, PARP1 WT; assay: fluorescence polarization; remark: listed apart in the source
PARP1 WT [7] = target: T2, PARP1 WT; assay: fluorescence polarization; remark: listed apart in the source
PARP1 WT [8] = target: T2, PARP1 WT; assay: fluorescence polarization; remark: listed apart in the source
PARP1 WT [9] = target: T2, PARP1 WT; assay: fluorescence polarization; remark: listed apart in the source
PARP1 WT [10] = target: T2, PARP1 WT; assay: fluorescence polarization; remark: listed apart in the source
PARP1 WT [11] = target: T2, PARP1 WT; assay: fluorescence polarization; remark: listed apart in the source
PARP1 WT [12] = target: T2, PARP1 WT; assay: fluorescence polarization; remark: listed apart in the source
PARP1 WT [13] = target: T2, PARP1 WT; assay: fluorescence polarization; remark: listed apart in the source
PARP1 WT [14] = target: T2, PARP1 WT; assay: fluorescence polarization; remark: listed apart in the source
PARP1 WT [15] = target: T2, PARP1 WT; assay: fluorescence polarization; remark: listed apart in the source
[16] = target: PARP1 Zn1-Zn3 ΔZn2;PARP1 WGR-CAT ΔVE (Homo sapiens?;Homo sapiens?, UniProt P09874;P09874 1-366;518-1014, del97-206|del687-688); assay: X-ray crystallography
[17] = read-out: PARP1 IC50, 10-point concentration-response curve, average of at least two independent experiments

Molecule: NC(=O)c1cccc2[nH]c(-c3ccc(C(=O)N4CCn5c(nnc5C(F)(F)F)C4)cc3)nc12 [Compound 12, 2-(4-(3-(Trifluoromethyl)-5,6,7,8-tetrahydro-[1,2, 4]triazolo[4,3-a]pyrazine-7-carbonyl)phenyl)-1H-benzo[d]imidazole-4-carboxamide]
- IC50 (PARP1 [1]; [17]): 25.4 nM

Molecule: C[C@]1(c2nc3c(C(N)=O)cccc3[nH]2)CCCN1 [Veliparib]
- allosteric PARPi type (PARP1 [2]): Type III

Molecule: Cl.Cl.Nc1ncnc2c1ncn2[C@@H]1O[C@H](C(=O)N2CCN(CC(=O)Nc3cccc4c3CNC4=O)CC2)[C@@H](O)[C@H]1O [EB-47]
- allosteric PARPi type (PARP1 [2]): Type I

Molecule: NC(=O)c1cccc2cn(-c3ccc([C@@H]4CCCNC4)cc3)nc12 [niraparib]
- allosteric PARPi type (PARP1 [2]): Type III

Molecule: CNCc1ccc(-c2[nH]c3cc(F)cc4c3c2CCNC4=O)cc1 [rucaparib]
- allosteric PARPi type (PARP1 [2]): Type III

Molecule: NC(=O)c1cccc2[nH]c(-c3cccc(C(=O)N4CCn5c(nnc5C(F)(F)F)C4)c3)nc12 [Compound 13, 2-(3-(3-(Trifluoromethyl)-5,6,7,8-tetrahydro-[1,2, 4]triazolo[4,3-a]pyrazine-7-carbonyl)phenyl)-1H-benzo[d]imidazole-4-carboxamide]
- IC50 (PARP1 [1]; [17]): 25.4 nM

Molecule: NC(=O)c1cccc([C@@H]2O[C@H](COP(=O)(O)OP(=O)(O)OC[C@H]3O[C@@H](n4cnc5c(N)ncnc54)[C@H](O)[C@@H]3O)[C@@H](O)[C@H]2O)c1 [BAD, benzamide adenine dinucleotide]
- allosteric PARPi type (PARP1 [2]): Type I

B1: 18-bp DNA duplex (dsDNA)
DNA 1: GGGTTGCGGCCGCTTGGG
DNA 2: CCCAAGCGGCCGCAACCC
- Kd (PARP1 WT [3]): 117 ± 16.8 nM
- Kd (PARP1 WT [4]): 210 ± 25 nM
- Kd (PARP1 WT [5]): 4.5 ± 1.7 nM
- Kd (PARP1 WT [6]): 47.7 ± 5.4 nM
- Kd (PARP1 WT [7]): 62.2 ± 14.6 nM
- Kd (PARP1 WT [8]): 11.8 ± 4.7 nM
- Kd (PARP1 WT [9]): 41.7 ± 11.4 nM
- Kd (PARP1 WT [10]): 61.9 ± 14.4 nM
- Kd (PARP1 WT [11]): 29 ± 5.2 nM
- Kd (PARP1 WT [12]): 61.7 ± 25.3 nM
- Kd (PARP1 WT [13]): 52.3 ± 3.2 nM
- Kd (PARP1 WT [14]): 82.1 ± 1.8 nM
- Kd (PARP1 WT [15]): 112 ± 31.2 nM

B2: 5-bp DNA duplex (dsDNA)
DNA 1: CGACG
DNA 2: CGTCG
- binding result [16]: binds

More lines, main results first:

- IC50 (PARP1 [1]): 11.9 nM
- decrease in PARP1 inhibition potency compared to veliparib (PARP1 [1]): approximately nine
Molecule: NC(=O)c1cccc2[nH]c(-c3ccc(C(=O)N4CCN(c5ncccn5)CC4)cc3)nc12 [Compound 4, 2-(4-(4-(Pyrimidin-2-yl)piperazine-1-carbonyl)phenyl)-1H-benzo[d]imidazole-4-carboxamide]

- IC50 (PARP1 [1]): 121 nM
- decrease in PARP1 inhibition potency compared to veliparib (PARP1 [1]): ~ 100 fold
Molecule: NC(=O)c1cccc2[nH]c(-c3cccc(C(=O)NCCc4nc5ccccc5[nH]4)c3)nc12 [Compound 11, 2-(3-((2-(1H-Benzo[d]imidazol-2-yl)ethyl)carbamoyl)phenyl)-1H-benzo[d]imidazole-4-carboxamide]

- IC50 (PARP1 [1]): 3.1 nM
Molecule: NC(=O)c1cccc2[nH]c(-c3ccc(C(=O)NCCc4nc5ccccc5[nH]4)cc3)nc12 [Compound 10, 2-(4-((2-(1H-Benzo[d]imidazol-2-yl)ethyl)carbamoyl)phenyl)-1H-benzo[d]imidazole-4-carboxamide]

- IC50 (PARP1 [1]): 17.3 nM
Molecule: Cc1cc(N)c(NC(=O)c2cccc(-c3nc4c(C(N)=O)cccc4[nH]3)c2)cc1C [Compound 14, 2-(3-((2-Amino-4,5-dimethylphenyl)carbamoyl)phenyl)-1H-benzo[d]imidazole-4-carboxamide]

- IC50 (PARP1 [1]): 6.2 nM
Molecule: NC(=O)c1cccc2[nH]c(-c3ccc(C(=O)N4CCN(c5nc6ccccc6[nH]5)CC4)cc3)nc12 [Compound 8, 2-(4-(4-(1H-Benzo[d]imidazol-2-yl)piperazine-1-carbonyl)phenyl)-1H-benzo[d]imidazole-4-carboxamide]

- IC50 (PARP1 [1]): > 10 nM
- inhibition at 0.01 µM (PARP1 [1]; read-out: PARP1 inhibition at 10 nM): 37%
Molecule: NC(=O)c1cccc2[nH]c(-c3ccc(C(=O)N4CCN(c5ncc(C(=O)O)cn5)CC4)cc3)nc12 [Compound 7, Sodium 2-(4-(4-(4-carbamoyl-1H-benzo[d]imidazol-2-yl)benzoyl)piperazin-1-yl)pyrimidine-5-carboxylate]

- IC50 (PARP1 [1]): 8.9 nM
Molecule: NC(=O)c1cccc2[nH]c(-c3cccc(C(=O)N4CCN(c5ncccn5)CC4)c3)nc12 [Compound 5, 2-(3-(4-(Pyrimidin-2-yl)piperazine-1-carbonyl)phenyl)-1H-benzo[d]imidazole-4-carboxamide]

- IC50 (PARP1 [1]): 2.8 nM
Molecule: COC(=O)c1cnc(N2CCN(C(=O)c3ccc(-c4nc5c(C(N)=O)cccc5[nH]4)cc3)CC2)nc1 [UKTT15 (6), Methyl 2-(4-(4-(4-carbamoyl-1H-benzo[d]imidazol-2-yl)benzoyl)piperazin-1-yl)pyrimidine-5-carboxylate]
- allosteric PARPi type (PARP1 [2]): Type I

- IC50 (PARP1 [1]): 3.9 nM
Molecule: NC(=O)c1cccc2[nH]c(-c3cccc(C(=O)N4CCN(c5nc6ccccc6[nH]5)CC4)c3)nc12 [Compound 9, 2-(3-(4-(1H-Benzo[d]imidazol-2-yl)piperazine-1-carbonyl)phenyl)-1H-benzo[d]imidazole-4-carboxamide]
